In brackets after ≈: the same amount, converted by molar mass. Square brackets hold non-standard residues; d marks the D form. Peptide text beside a SMILES is read from it. * marks the point of attachment. Palmitoyl = CCCCCCCCCCCCCCCC(=O)*; Myristoyl = CCCCCCCCCCCCCC(=O)*; Orn = NCCC[CH](N)C(=O)O
What was measured:
Klebsiella pneumoniae [1] = assay: Antibacterial activity against clinical isolates of kanamycin-resistant Klebsiella pneumoniae GMCH/R-Kan006 after overnight incubation by microdilution broth assay; format: functional
[2] = system: Staphylococcus epidermidis; assay: Antibacterial activity against clinical isolates of Staphylococcus epidermidis GMCH/B0057 after overnight incubation by microdilution broth assay; format: functional
Haemophilus influenzae [3] = assay: Antibacterial activity against clinical isolates of ciprofloxacin-resistant Haemophilus influenzae PGI/DML01744 after overnight incubation by microdilution broth assay; format: functional
Streptococcus pneumoniae [4] = assay: Antibacterial activity against clinical isolates of Streptococcus pneumoniae PGI/DML02468 after overnight incubation by microdilution broth assay; format: functional
Klebsiella pneumoniae [5] = assay: Antibacterial activity against clinical isolates of Klebsiella pneumoniae GMCH/B0127 after overnight incubation by microdilution broth assay; format: functional
Haemophilus influenzae [6] = assay: Antibacterial activity against clinical isolates of Haemophilus influenzae PGI/DML01751 after overnight incubation by microdilution broth assay; format: functional
[7] = Cytotoxicity against human HaCaT cells assessed as cell viability at 500 ug/ml after 18 hrs by MTT assay; format: cell-based; conditions: read-out: Activity
Acinetobacter baumannii [8] = assay: Antibacterial activity against clinical isolates of imipenem-resistant Acinetobacter baumannii GMCH/R-Imi003 after overnight incubation by microdilution broth assay; format: functional
[9] = Cytotoxicity against human HaCaT cells assessed as cell viability at 100 ug/ml after 18 hrs by MTT assay; format: cell-based; conditions: read-out: Activity
Pseudomonas aeruginosa [10] = assay: Antibacterial activity against clinical isolates of Pseudomonas aeruginosa PGI/DML02084 after overnight incubation by microdilution broth assay; format: functional
Staphylococcus aureus [11] = assay: Antibacterial activity against clinical isolates of methicillin-resistant Staphylococcus aureus PGI/DML03149 after overnight incubation by microdilution broth assay; format: functional
Staphylococcus aureus [12] = assay: Antibacterial activity against clinical isolates of Staphylococcus aureus PGI/DML03054 after overnight incubation by microdilution broth assay; format: functional
Acinetobacter baumannii [13] = assay: Antibacterial activity against clinical isolates of Acinetobacter baumannii GMCH/B0083 after overnight incubation by microdilution broth assay; format: functional
Enterococcus faecalis [14] = assay: Antibacterial activity against clinical isolates of Enterococcus faecalis GMCH/B0091 after overnight incubation by microdilution broth assay; format: functional
Escherichia coli [15] = assay: Antibacterial activity against clinical isolates of imipenem-resistant Escherichia coli PGI/DML02292 after overnight incubation by microdilution broth assay; format: functional
Pseudomonas aeruginosa [16] = assay: Antibacterial activity against clinical isolates of streptomycin-resistant Pseudomonas aeruginosa PGI/DML01991 after overnight incubation by microdilution broth assay; format: functional
Streptococcus pneumoniae [17] = assay: Antibacterial activity against clinical isolates of erythromycin-resistant Streptococcus pneumoniae PGI/DML02213 after overnight incubation by microdilution broth assay; format: functional
Enterococcus faecium [18] = assay: Antibacterial activity against clinical isolates of Enterococcus faecium GMCH/B0102 after overnight incubation by microdilution broth assay; format: functional
Enterococcus faecium [19] = assay: Antibacterial activity against clinical isolates of penicillin-resistant Enterococcus faecium GMCH/R-Pen003 after overnight incubation by microdilution broth assay; format: functional
Enterococcus faecalis [20] = assay: Antibacterial activity against clinical isolates of gentamicin-resistant Enterococcus faecalis GMCH/R-Gen011 after overnight incubation by microdilution broth assay; format: functional
Escherichia coli [21] = assay: Antibacterial activity against clinical isolates of Escherichia coli PGI/DML02250 after overnight incubation by microdilution broth assay; format: functional
[22] = system: Staphylococcus epidermidis; assay: Antibacterial activity against clinical isolates of ampicillin-resistant Staphylococcus epidermidis GMCH/R-Amp008 after overnight incubation by microdilution broth assay; format: functional

SMILES | MIC (Klebsiella pneumoniae [1]) [µg/mL] | MIC [2] [µg/mL] | MIC (Haemophilus influenzae [3]) [µg/mL] | MIC (Streptococcus pneumoniae [4]) [µg/mL] | MIC (Klebsiella pneumoniae [5]) [µg/mL] | MIC (Haemophilus influenzae [6]) [µg/mL] | viability at 18 h, 500 ug/ml [7] [%] | MIC (Acinetobacter baumannii [8]) [µg/mL] | viability at 18 h, 100 ug/ml [9] [%] | MIC (Pseudomonas aeruginosa [10]) [µg/mL] | MIC (Staphylococcus aureus [11]) [µg/mL] | MIC (Staphylococcus aureus [12]) [µg/mL] | MIC (Acinetobacter baumannii [13]) [µg/mL] | MIC (Enterococcus faecalis [14]) [µg/mL] | MIC (Escherichia coli [15]) [µg/mL] | MIC (Streptococcus pneumoniae [17]) [µg/mL] | MIC (Enterococcus faecium [18]) [µg/mL] | MIC (Enterococcus faecium [19]) [µg/mL] | MIC (Enterococcus faecalis [20]) [µg/mL] | MIC [22] [µg/mL] | further results
CCCCCCCCCCCCCCCC(=O)NC(CCCN)C(=O)NC(CCCN)C(=O)NC(CCCN)C(=O)NC(CCCN)C(=O)NC(CCCN)C(N)=O (stereo not drawn) (Palmitoyl-[Orn][Orn][Orn][Orn][Orn]-NH2; configuration not given here) | 10 (≈ 12.1 µM) | 3.1 (≈ 3.75 µM) | 12.5 (≈ 15.1 µM) | 3.1 (≈ 3.75 µM) | 2.5 (≈ 3.03 µM) | 10 (≈ 12.1 µM) | > 80 | 9.5 (≈ 11.5 µM) | > 80 | 2 (≈ 2.42 µM) | 10 (≈ 12.1 µM) | 7.5 (≈ 9.08 µM) | 12.5 (≈ 15.1 µM) | 2 (≈ 2.42 µM) | 5 (≈ 6.05 µM) | 7.5 (≈ 9.08 µM) | 3 (≈ 3.63 µM) | 7.5 (≈ 9.08 µM) | 12.5 (≈ 15.1 µM) | 7.5 (≈ 9.08 µM) | MIC (Pseudomonas aeruginosa [16]): 6.5 µg/mL (≈ 7.87 µM); MIC (Escherichia coli [21]): 1.5 µg/mL (≈ 1.82 µM)
CCCCCCCCCCCCCCCCCC(=O)NC(CCCN)C(=O)NC(CCCN)C(=O)NC(CCCN)C(N)=O (stereo not drawn) | 7.5 (≈ 12 µM) | 7.5 (≈ 12 µM) | 7.5 (≈ 12 µM) | 2.5 (≈ 3.99 µM) | 3.5 (≈ 5.59 µM) | 10 (≈ 16 µM) | > 80 | 4.5 (≈ 7.19 µM) | > 80 | 1.5 (≈ 2.4 µM) | 5.5 (≈ 8.79 µM) | 6.2 (≈ 9.91 µM) | 6.5 (≈ 10.4 µM) | 2.5 (≈ 3.99 µM) | 7.5 (≈ 12 µM) | 5 (≈ 7.99 µM) | 4.5 (≈ 7.19 µM) | 7.5 (≈ 12 µM) | 6.25 (≈ 9.98 µM) | 5 (≈ 7.99 µM) | MIC (Pseudomonas aeruginosa [16]): 4.5 µg/mL (≈ 7.19 µM); MIC (Escherichia coli [21]): 10 µg/mL (≈ 16 µM)
CCCCCCCCCCCCCCCC(=O)NC(CCCN)C(=O)NC(CCCN)C(=O)NC(CCCN)C(=O)NC(CCCN)C(N)=O (stereo not drawn) (Palmitoyl-[Orn][Orn][Orn][Orn]-NH2; configuration not given here) | 5.5 (≈ 7.72 µM) | 2.5 (≈ 3.51 µM) | 12.5 (≈ 17.6 µM) | 2.5 (≈ 3.51 µM) | 2 (≈ 2.81 µM) | 7.5 (≈ 10.5 µM) | > 80 | 10 (≈ 14 µM) | > 80 | 3 (≈ 4.21 µM) | 4.5 (≈ 6.32 µM) | 3.1 (≈ 4.35 µM) | 6.5 (≈ 9.13 µM) | 3.5 (≈ 4.92 µM) | 12.5 (≈ 17.6 µM) | 10.5 (≈ 14.7 µM) | 3.5 (≈ 4.92 µM) | 3.5 (≈ 4.92 µM) | 7.5 (≈ 10.5 µM) | 2 (≈ 2.81 µM) | MIC (Pseudomonas aeruginosa [16]): 6.25 µg/mL (≈ 8.78 µM); MIC (Escherichia coli [21]): 2 µg/mL (≈ 2.81 µM)
CCCCCCCCCC(=O)N[C@@H](Cc1c[nH]c2ccccc12)C(=O)N[C@H](CC(N)=O)C(=O)N[C@@H](CC(=O)O)C(=O)N[C@@H]1C(=O)NCC(=O)N[C@@H](CCCN)C(=O)N[C@@H](CC(=O)O)C(=O)N[C@H](C)C(=O)N[C@@H](CC(=O)O)C(=O)NCC(=O)N[C@H](CO)C(=O)N[C@@H]([C@H](C)CC(=O)O)C(=O)N[C@@H](CC(=O)c2ccccc2N)C(=O)O[C@@H]1C |  | 0.5 (≈ 0.309 µM) |  | 1.25 (≈ 0.771 µM) |  |  |  |  |  |  | 1.25 (≈ 0.771 µM) | 0.7 (≈ 0.432 µM) |  | 1.75 (≈ 1.08 µM) |  | 1.5 (≈ 0.926 µM) | 2 (≈ 1.23 µM) | 2.5 (≈ 1.54 µM) | 1.5 (≈ 0.926 µM) | 1.5 (≈ 0.926 µM) | 
CCCCCCCCCCCCCC(=O)NC(CCCN)C(=O)NC(CCCN)C(=O)NC(CCCN)C(=O)NC(CCCN)C(=O)NC(CCCN)C(N)=O (stereo not drawn) (Myristoyl-[Orn][Orn][Orn][Orn][Orn]-NH2; configuration not given here) | 7.5 (≈ 9.4 µM) | 7.5 (≈ 9.4 µM) | 15.5 (≈ 19.4 µM) | 3.5 (≈ 4.39 µM) | 6.2 (≈ 7.77 µM) | 12.5 (≈ 15.7 µM) | > 80 | 6.5 (≈ 8.14 µM) | > 80 | 1.5 (≈ 1.88 µM) | 12.5 (≈ 15.7 µM) | 10 (≈ 12.5 µM) | 8.25 (≈ 10.3 µM) | 1.5 (≈ 1.88 µM) | 6.25 (≈ 7.83 µM) | 12.5 (≈ 15.7 µM) | 3.1 (≈ 3.88 µM) | 6.21 (≈ 7.78 µM) | 10.5 (≈ 13.2 µM) | 12.5 (≈ 15.7 µM) | MIC (Pseudomonas aeruginosa [16]): 4.25 µg/mL (≈ 5.32 µM); MIC (Escherichia coli [21]): 2.5 µg/mL (≈ 3.13 µM)
